Assay [1] deals with h-TELO (DNA, G4) AGGGTTAGGGTTAGGGTTAGGG
Nature of the assay: ITC. The note with it: 100 mM K+; 10 mM HEPES, pH 7.4, 298 K; h-TELO 5 μM in cell.

Assay [2] relates to h-TELO (dual-labeled) (DNA, G4) AGGGTTAGGGTTAGGGTTAGGG
Briefly: FRET melting. Conditions: 100 mM K+; 10 mM HEPES, pH 7.4; MG 1.5 μM (3 equiv.), DNA 0.5 μM; Tm 49 to 76 °C.

Assay [3] relates to h-TELO (DNA, G4) AGGGTTAGGGTTAGGGTTAGGG
Nature of the assay: fluorescence titration of MG emission. Conditions: 100 mM K+; 10 mM HEPES, pH 7.4, 25 °C; MG 10 μM, h-TELO 0-6 μM.

The structures appear in SMILES notation.

In the case of `CCCCCCCCCCCCCCCCCC(=O)NCc1cn(CCCC(=O)OC[C@H]2O[C@@H](n3cnc4c(=O)[nH]c(N)nc43)[C@@H]3OC(C)(C)O[C@@H]32)nn1`, the Kd in assay [1] is 4.48 µM; in assay [3], 3.2 µM. For the same compound, in assay [2], the ΔTm was 27 °C.

The values are drawn from paper PMC6981123 (2020).
